Experimental data from patent US20120165325A1, “Stable forms of N-(2,6-Dimethyl-4-morpholin-4-yl-phenyl)-3,3-dimethyl-butyramide” (H. Lundbeck A/S, priority 2009, published 2012).
Marks after values point to notes of the source that are not given here.

Legend:
[1] = system: DA levels in the nucleus accumbens; assay: Microdialysis: DA levels in the nucleus accumbens of freely moving rats; format: in vivo, rat; conditions: for DA level in the nucleus accumbens, % of baseline: amphetamine 0.5 mg/kg s.c. + compound 5 mg/kg s.c.
Description: Subjects. Male Sprague-Dawley rats (Charles River), initially weighing 275-300 g, were used. The animals were housed under a 12-hr light/dark cycle under controlled conditions for regular in-door temperature (21±2° C.) and humidity (55±5%) with food and tap water available ad libitum.
Surgery. Animals were anaesthetized with hypnorm/dormicum (2 ml/kg s.c.) and intracerebral guide cannulas (CMA/12) were stereotaxically implanted, positioning the dialysis probe tip in the nucleus accumbens (co-ordinates: 1.7 mm anterior to bregma, −1.2 mm lateral to bregma, 8.0 mm ventral to the dura). Anchor screws and acrylic cement was applied for fixation of the guide cannula. The body temperature of the animals was maintained at 37° C. by means of a rectal probe and a heating plate. The rats were allowed to recover from surgery for 2 days, housed singly in cages.
Experimental procedure. On the day of the experiment, a microdialysis probe (CMA/12, 0.5 mm diameter, 2 mm length) was inserted through the guide cannula of the conscious animal.
The probes were connected to a microinjection pump via a dual channel swivel which allowed the animals unrestricted movements. Perfusion of the microdialysis probe with filtered Ringer solution (145 mM NaCl, 3 mM KCl, 1 mM MgCl2, 1.2 mM CaCl2) was maintained for the duration of the experiment at a constant flow rate of 1 μL/min. After 180 min of stabilisation, the experiments were initiated. Dialysates were collected every 20 min. After the experiments the rats were sacrificed by decapitation, their brains removed, frozen and sliced for probe placement verification.
Administration of compounds. N-(2,6-dimethyl-4-morpholin-4-yl-phenyl)-3,3-dimethyl-butyramide (5 mg/kg) or vehicle (10% 2-hydroxy-propyl-beta-cyclodextrin, isotonic, pH 5-7) was administered subcutaneously in a volume of 2.5 ml/kg. Thirty min after the first administration dex-amphetamine sulphate (0.5 mg/kg s.c.) was administered.
Analysis of dialvsate. The concentration of dopamine (DA) in the dialysates was assessed by means of HPLC with electrochemicl detection. The dialysate constitutents were separated by reverse phase liquid chromatography (ODS 150×3 mm, […]). Mobile phase consisted of 90 mM NaH2PO4, 50 mM sodium citrate, 367 mg/l sodium 1-octanesulfonic acid, 50 μM EDTA and 8% acetonitrile (pH 4.0) at a flow rate of 0.5 mL/min. Electrochemical detection of DA was accomplished using a coulometric detector; potential set at E1=−75 mV and E2=300 mV (guard cell at 350 mV) (Coulochem II, ESA). The dialysate levels of DA in the three dialyse samples preceding the administration of compound were averaged and used as baseline level of DA (100%).
Statistical analysis. The dialysate levels of DA in the three dialyse samples preceding the administration of compound were averaged and used as baseline level of DA (100%). Data were analysed using repeated measure analyses of variance followed by post hoc tests (Tukey test), when appropriate. *p<0.05 were considered significant.

Male NMRI mice = assay: Forced swim test; format: in vivo, mouse; conditions: 30 min before test, last 3 min of 6 min swim, vehicle = 100
Description: Subjects. Male NMRI mice (Charles River) weighing 23-25 g were used. The mice were kept 8 mice pr cage in a 12-hr light/dark cycle under controlled conditions for regular in-door temperature (21±2° C.) and humidity (55±5%) with food and tap water available ad libitum. 8 mice were used pr experimental group.
Experimental procedure. The mice were placed in 2000 ml beaker containing 1200 ml of tempered water (25° C.) and left to swim for 6 min. The performance of the mice was video recorded, digitalized and analysed by means of a digital analysis system (Bioobserve). The time spent immobile for the last 3 min. of the test session was quantified for each mouse.
Treatment. 30 min. before the test, mice were treated s.c. with N-(2,6-dimethyl-4-morpholin-4-yl-phenyl)-3,3-dimethyl-butyramide or vehicle (10-%-2-OH-propyl-cyclodextrin, 10 ml/kg). In addition as positive control, imipramine-HCl (40 mg/kg) and a saline control (10 ml/kg) was included.
Analyses. The time spent immobile was statistically compared across the experimental groups against the relevant control group by means of one-way analysis of variance. A post-hoc test (Student-Newman-Keuls) was employed when appropriate. P-levels <0.05 were considered significant.

Male Wistar rats = assay: Amphetamine challenge: antagonism of d-amphetamine induced hyperactivity; format: in vivo; conditions: rat; s.c. 30 min before d-amphetamine sulphate 0.5 mg/kg; motility over 2 hours; std. dev. in brackets
Description: Subjects. Male Wistar rats (Taconic, Denmark) weighing 170-240 g are used. The animals were housed under a 12-hr light/dark cycle under controlled conditions for regular in-door temperature (21±2° C.) and humidity (55±5%) with food and tap water available ad libitum. Eight rats were used at each dose level and in the parallel control group receiving the vehicle to the test compound plus d-amphetamine and the group receiving vehicle injections only.
Experimental procedure. The experiment was made in normal light conditions in an undisturbed room. The test substance was injected 30 min before s.c. before the injection of d-amphetamine sulphate (0.5 mg/kg). Immediately after injection of d-amphetamine, the rats were placed individually in the test cages that were placed in a U-frame, equipped with 4 infrared light sources and photocells. The light beams crossed the cage 4 cm above the cage floor. Recording of a motility count required interruption of adjacent light beams, thus avoiding counts induced by stationary movements of the rat. Motility (counts) was recorded for a period of 2 hours. The mean motility induced by vehicle (saline) treatment in the absence of d-amphetamine was used as baseline. The 100 percent effect of d-amphetamine was accordingly calculated to be total motility counts minus baseline. The response in groups receiving test compound was thus determined by the total motility counts minus baseline, expressed in percent of the similar result recorded in the parallel amphetamine control group. The percent responses were converted to percent inhibition from which ED50 values were calculated by means of log-probit analyses. In a parallel set of data, the potential sedative properties (motility inhibition) of the test compounds were evaluated using essentially the same procedure with the exception of not administering d-amphetamine-sulphate at the initiation of locomotor assessment.

Cc1cc(N2CCOCC2)cc(C)c1NC(=O)CC(C)(C)C [N-(2,6-dimethyl-4-morpholin-4-yl-phenyl)-3,3-dimethyl-butyramide]
Effect on basal extracellular DA level in the nucleus accumbens ([1]; freely moving rats, data not shown): did not significantly affected | DA level in the nucleus accumbens, % of baseline ([1]; time 0 min (baseline sample)): 91 ± 4 % of baseline | DA level in the nucleus accumbens, % of baseline ([1]; time 20 min): 112 ± 12 % of baseline | DA level in the nucleus accumbens, % of baseline ([1]; time 40 min): 227 ± 46 % of baseline | DA level in the nucleus accumbens, % of baseline ([1]; time 60 min): 262 ± 53* % of baseline | DA level in the nucleus accumbens, % of baseline ([1]; time 80 min): 195 ± 38* % of baseline | DA level in the nucleus accumbens, % of baseline ([1]; time 100 min): 172 ± 24 % of baseline | DA level in the nucleus accumbens, % of baseline ([1]; time 120 min): 166 ± 32 % of baseline | DA level in the nucleus accumbens, % of baseline ([1]; time 140 min): 129 ± 35 % of baseline | DA level in the nucleus accumbens, % of baseline ([1]; time −20 min (baseline sample)): 100 ± 3 % of baseline | DA level in the nucleus accumbens, % of baseline ([1]; time −40 min (baseline sample)): 108 ± 5 % of baseline | Immobility in % (±S.D.) (Male NMRI mice; dose 1.3 mg/kg): 102% | Immobility in % (±S.D.) (Male NMRI mice; dose 2.5 mg/kg): 96.7% | Immobility in % (±S.D.) (Male NMRI mice; dose 5.0 mg/kg): 82.3% | ED50 (Male Wistar rats): 2.1 mg/kg
